According to patent US9603364B2 (Dow AgroSciences LLC, priority 2013, dated 2017):

Tests used:
Assay in all cases: General post-emergent herbicidal activity, foliar application
Assay type in all cases: in vivo
[1] = tested on: Amaranthus retroflexus L. (pigweed, redroot); settings: for pest or weed control at 35 g/ha / pest or weed control at 70 g/ha / pest or weed control at 140 g/ha / pest or weed control at 280 g/ha: Amaranthus retroflexus, 336 h, foliar post-emergent, scored after 14 days, read-out: % Visual Growth Reduction AMARE; for pest or weed control at 35 g/ha: 35 g ai/ha; for pest or weed control at 70 g/ha: 70 g ai/ha; for pest or weed control at 140 g/ha: 140 g ai/ha; for pest or weed control at 280 g/ha: 280 g ai/ha; for GR80 Value AMARE: calculated by probit analysis, dose for 80% visual injury, may be extrapolated
Procedure, shortened: (§1)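 Compounds in acetone/DMSO (97:3) were diluted into aqueous spray containing isopropyl alcohol, Atplus 411F crop oil and Triton X-155, then applied post-emergence to foliage at a top rate plus 1/2× to 1/16× serial dilutions. Injury was scored visually (0–100%) after 14 days in a sub-irrigated greenhouse versus untreated plants. GR20/GR50/GR80 were derived by probit analysis, with some GR80 values extrapolated from curve slope.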

[2] = tested on: Chenopodium album L. (lambsquarters, common); settings: for pest or weed control at 35 g/ha / pest or weed control at 70 g/ha / pest or weed control at 140 g/ha / pest or weed control at 280 g/ha: Chenopodium album, 336 h, foliar post-emergent, scored after 14 days, read-out: % Visual Growth Reduction CHEAL; for pest or weed control at 35 g/ha: 35 g ai/ha; for pest or weed control at 70 g/ha: 70 g ai/ha; for pest or weed control at 140 g/ha: 140 g ai/ha; for pest or weed control at 280 g/ha: 280 g ai/ha; for GR80 Value CHEAL: calculated by probit analysis, dose for 80% visual injury, may be extrapolated
Procedure, shortened: as §1

[3] = tested on: Echinochloa crus-galli (L.) Beauv. (barnyardgrass); settings: for pest or weed control at 35 g/ha / pest or weed control at 70 g/ha / pest or weed control at 140 g/ha / pest or weed control at 280 g/ha: Echinochloa crus-galli, 336 h, foliar post-emergent, scored after 14 days, read-out: % Visual Growth Reduction ECHCG; for pest or weed control at 35 g/ha: 35 g ai/ha; for pest or weed control at 70 g/ha: 70 g ai/ha; for pest or weed control at 140 g/ha: 140 g ai/ha; for pest or weed control at 280 g/ha: 280 g ai/ha; for GR80 Value ECHCG: calculated by probit analysis, dose for 80% visual injury, may be extrapolated
Procedure, shortened: as §1

[4] = tested on: Euphorbia heterophylla L. (poinsettia, wild); settings: for pest or weed control at 35 g/ha / pest or weed control at 70 g/ha / pest or weed control at 140 g/ha / pest or weed control at 280 g/ha: Euphorbia heterophylla, 336 h, foliar post-emergent, scored after 14 days, read-out: % Visual Growth Reduction EPHHL; for pest or weed control at 35 g/ha: 35 g ai/ha; for pest or weed control at 70 g/ha: 70 g ai/ha; for pest or weed control at 140 g/ha: 140 g ai/ha; for pest or weed control at 280 g/ha: 280 g ai/ha; for GR80 Value EPHHL: calculated by probit analysis, dose for 80% visual injury, may be extrapolated
Procedure, shortened: as §1

[5] = tested on: Helianthus annuus L. (sunflower, common); settings: for pest or weed control at 35 g/ha / pest or weed control at 70 g/ha / pest or weed control at 140 g/ha / pest or weed control at 280 g/ha: Helianthus annuus, 336 h, foliar post-emergent, scored after 14 days, read-out: % Visual Growth Reduction HELAN; for pest or weed control at 35 g/ha: 35 g ai/ha; for pest or weed control at 70 g/ha: 70 g ai/ha; for pest or weed control at 140 g/ha: 140 g ai/ha; for pest or weed control at 280 g/ha: 280 g ai/ha; for GR80 Value HELAN: calculated by probit analysis, dose for 80% visual injury, may be extrapolated
Procedure, shortened: as §1

[6] = tested on: Viola tricolor L. (pansy); settings: for pest or weed control at 35 g/ha / pest or weed control at 70 g/ha / pest or weed control at 140 g/ha / pest or weed control at 280 g/ha: Viola tricolor, 336 h, foliar post-emergent, scored after 14 days, read-out: % Visual Growth Reduction VIOTR; for pest or weed control at 35 g/ha: 35 g ai/ha; for pest or weed control at 70 g/ha: 70 g ai/ha; for pest or weed control at 140 g/ha: 140 g ai/ha; for pest or weed control at 280 g/ha: 280 g ai/ha; for GR80 Value VIOTR: calculated by probit analysis, dose for 80% visual injury, may be extrapolated
Procedure, shortened: as §1

[7] = tested on: Oryza sativa L. (rice); settings: Oryza sativa, 336 h, scored after 14 days, read-out: % Visual Growth Reduction ORYSA; for plant injury at 35 g/ha: 35 g ai/ha; for plant injury at 70 g/ha: 70 g ai/ha; for plant injury at 140 g/ha: 140 g ai/ha; for plant injury at 280 g/ha: 280 g ai/ha
Procedure, shortened: (§2)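 Injury rated visually 14 days after treatment on a 0 (none) to 100% (complete kill) scale against untreated plants; greenhouse-grown, sub-irrigated to avoid wash-off. Foliar spray in aqueous acetone/DMSO with isopropanol, crop oil concentrate and Triton X-155, at a highest rate and 2-fold serial dilutions down to 1/16×.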

[8] = tested on: Zea mays L. (corn); settings: 336 h, scored after 14 days, read-out: % Visual Growth Reduction ZEAMX; for plant injury at 35 g/ha: 35 g ai/ha; for plant injury at 70 g/ha: 70 g ai/ha; for plant injury at 140 g/ha: 140 g ai/ha; for plant injury at 280 g/ha: 280 g ai/ha
Procedure, shortened: as §2

Row | SMILES | pest or weed control at 70 g/ha [1] [%] | pest or weed control at 140 g/ha [1] [%] | GR80 Value AMARE [1] [g ai/ha] | pest or weed control at 70 g/ha [2] [%] | pest or weed control at 140 g/ha [2] [%] | GR80 Value CHEAL [2] [g ai/ha] | pest or weed control at 70 g/ha [3] [%] | pest or weed control at 140 g/ha [3] [%] | GR80 Value ECHCG [3] [g ai/ha] | pest or weed control at 70 g/ha [4] [%] | pest or weed control at 140 g/ha [4] [%] | GR80 Value EPHHL [4] [g ai/ha] | pest or weed control at 70 g/ha [5] [%] | pest or weed control at 140 g/ha [5] [%] | GR80 Value HELAN [5] [g ai/ha] | pest or weed control at 70 g/ha [6] [%] | pest or weed control at 140 g/ha [6] [%] | GR80 Value VIOTR [6] [g ai/ha] | plant injury at 140 g/ha [7] [%] | plant injury at 140 g/ha [8] [%] | further results
1 | COC(=O)c1nc(CF)c(F)c(N)c1Cl [Compound F14, Methyl 4-amino-3-chloro-5-fluoro-6-(fluoromethyl)picolinate] | 80 | 90 | 89.2 | 90 | 100 | 16.8 | 0 | 15 | 411 | 100 | 100 | 53.9 | 90 | 95 | 18 | 0 | 50 | 334 | 0 | 20 | pest or weed control at 35 g/ha [1]: 70%; pest or weed control at 280 g/ha [1]: 100%; pest or weed control at 35 g/ha [2]: 85%; pest or weed control at 280 g/ha [2]: 100%; pest or weed control at 35 g/ha [3]: 0%; pest or weed control at 280 g/ha [3]: 60%; pest or weed control at 35 g/ha [4]: 10%; pest or weed control at 280 g/ha [4]: 100%; pest or weed control at 35 g/ha [5]: 85%; pest or weed control at 280 g/ha [5]: 95%; pest or weed control at 35 g/ha [6]: 0%; pest or weed control at 280 g/ha [6]: 60%; plant injury at 35 g/ha [7]: 0%; plant injury at 70 g/ha [7]: 0%; plant injury at 280 g/ha [7]: 0%; plant injury at 35 g/ha [8]: 0%; plant injury at 70 g/ha [8]: 0%; plant injury at 280 g/ha [8]: 45%
2 | COC(=O)c1nc(C(C)F)c(F)c(N)c1Cl (centres unmarked) [Compound F15, Methyl 4-amino-3-chloro-5-fluoro-6-(1-fluoroethyl)picolinate] | 90 | 95 | 22.3 | 85 | 80 | 48.6 | 20 | 30 | >140 | 85 | 90 | 75.1 | 90 | 100 | 24.4 | 45 | 55 | >140 | 0 | 0 | pest or weed control at 35 g/ha [1]: 90%; pest or weed control at 35 g/ha [2]: 80%; pest or weed control at 35 g/ha [3]: 0%; pest or weed control at 35 g/ha [4]: 55%; pest or weed control at 35 g/ha [5]: 80%; pest or weed control at 35 g/ha [6]: 25%; plant injury at 35 g/ha [7]: 0%; plant injury at 70 g/ha [7]: 0%; plant injury at 35 g/ha [8]: 0%; plant injury at 70 g/ha [8]: 0%
3 | CC(F)c1nc(C(=O)O)c(Cl)c(N)c1Cl (centres unmarked) [Compound F16, 4-Amino-3,5-dichloro-6-(1-fluoroethyl)picolinic acid] | 90 | 90 | 51.4 | 100 | 100 | <17.5 | 0 | 0 | >280 | 0 | 0 | 373 | 80 | 90 | 31.4 | 0 | 0 | >280 | 0 | 0 | pest or weed control at 280 g/ha [1]: 100%; pest or weed control at 280 g/ha [2]: 100%; pest or weed control at 280 g/ha [3]: 0%; pest or weed control at 280 g/ha [4]: 50%; pest or weed control at 280 g/ha [5]: 100%; pest or weed control at 280 g/ha [6]: 0%; plant injury at 70 g/ha [7]: 0%; plant injury at 280 g/ha [7]: 0%; plant injury at 70 g/ha [8]: 0%; plant injury at 280 g/ha [8]: 0%
4 | COC(=O)c1nc(C(F)=C(F)F)cc(N)c1Cl [Compound F17] |  | 0 |  |  | 0 |  |  | 0 |  |  | 0 |  |  | 60 |  |  | 0 |  | 0 | 0 | 
5 | COC(=O)c1nc(C(C)F)cc(N)c1Cl (centres unmarked) [Compound F19, Methyl 4-amino-3-chloro-6-(1-fluoroethyl)picolinate] | 100 | 100 | 19.1 | 100 | 100 | <17.5 | 0 | 20 | >280 | 90 | 100 | 72.3 | 20 | 50 | 341 | 100 | 100 | 34.3 | 0 | 90 | pest or weed control at 35 g/ha [1]: 100%; pest or weed control at 280 g/ha [1]: 100%; pest or weed control at 35 g/ha [2]: 100%; pest or weed control at 280 g/ha [2]: 100%; pest or weed control at 35 g/ha [3]: 0%; pest or weed control at 280 g/ha [3]: 25%; pest or weed control at 35 g/ha [4]: 10%; pest or weed control at 280 g/ha [4]: 100%; pest or weed control at 35 g/ha [5]: 10%; pest or weed control at 280 g/ha [5]: 80%; pest or weed control at 35 g/ha [6]: 100%; pest or weed control at 280 g/ha [6]: 100%; plant injury at 35 g/ha [7]: 0%; plant injury at 70 g/ha [7]: 0%; plant injury at 280 g/ha [7]: 0%; plant injury at 35 g/ha [8]: 0%; plant injury at 70 g/ha [8]: 0%; plant injury at 280 g/ha [8]: 100%
6 | COC(=O)c1nc(C(C)CF)cc(N)c1Cl (centres unmarked) [Compound F20, methyl 4-amino-3-chloro-6-(1-fluoropropan-2-yl)picolinate] |  | 95 |  |  | 80 |  |  | 0 |  |  | 95 |  |  | 50 |  |  | 30 |  | 0 | 0 | 
